# Data: patent US8889712B2, “IAP antagonists” (Bristol-Myers Squibb Company, priority 2012, dated 2014)
# Experiments:
# XIAP BIR2-3 = target: T1, XIAP BIR2-3 (Homo sapiens, UniProt P98170, C202A/C213G); experiment: XIAP-BIR2-3 dimeric SMAC Peptide Homogeneous Time Resolved Fluorescence (HTRF) Assay; assay type: binding; details: 0.5 nM N-His-BIR2-3 (125-356, C202A/C213G, XIAP), 20 nM fluorescein labeled dimeric SMAC peptide; HTRF signal; read-out: XIAP BIR2-3 IC50
# T1 construct: His-BIR2-3 (125-356, C202A/C213G, XIAP)
# T1 sequence (P98170 125-356 C202A/C213G): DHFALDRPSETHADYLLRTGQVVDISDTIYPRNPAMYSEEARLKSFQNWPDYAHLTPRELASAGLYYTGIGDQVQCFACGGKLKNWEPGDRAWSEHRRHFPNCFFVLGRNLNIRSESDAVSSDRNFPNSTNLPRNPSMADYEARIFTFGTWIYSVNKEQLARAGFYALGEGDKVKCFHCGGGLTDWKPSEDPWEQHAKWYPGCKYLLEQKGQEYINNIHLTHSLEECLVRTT
# Method: B. […] Assays were performed in black, flat-bottom, 384-well plates. […] Compounds were dissolved at 3 mM in dimethylsulfoxide (DMSO) and evaluated at eleven serially diluted concentrations. IC50 and Ki values were derived by non-linear regression analysis.
# XIAP BIR3 = target: T2, XIAP BIR3 (Homo sapiens, UniProt P98170); experiment: XIAP-BIR3/SMAC Homogeneous Time Resolved Fluorescence (HTRF) Assay; assay type: binding; details: 1 nM N-His-BIR3 (241-356, XIAP), 5 nM fluorescein labeled SMAC peptide; HTRF signal; read-out: XIAP BIR3 IC50
# T2 construct: His-BIR3 (241-356, XIAP)
# T2 sequence (P98170 241-356): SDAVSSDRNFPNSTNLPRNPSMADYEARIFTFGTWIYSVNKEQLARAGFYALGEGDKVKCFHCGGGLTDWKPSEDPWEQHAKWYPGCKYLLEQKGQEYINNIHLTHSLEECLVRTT
# Summary of the method: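 Competition HTRF between XIAP-BIR3 and SMAC; reaction 60 min at room temperature, then anti-6×His-terbium Fab detection for a further 30 min.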
IC50 (XIAP BIR2-3),IC50 (XIAP BIR3),Structure (SMILES)
1.7 nM,3.3 nM,"CN[C@@H](C)C(=O)N[C@H](C(=O)N1Cc2cc([C@H]3C[C@@H](C(=O)N[C@@H]4CCCc5ccccc54)N(C(=O)[C@@H](NC(=O)[C@H](C)NC)C(C)(C)C)C3)ccc2C[C@H]1C(=O)N[C@@H](CO)c1ccccc1F)C(C)(C)C [Example 36, (S)-2-((S)-3,3-Dimethyl-2-((S)-2-(methylamino)propanamido)butanoyl)-7-((3R,5S)-1-((S)-3,3-dimethyl-2-((S)-2-(methylamino)propanamido)butanoyl)-5-(((R)-1,2,3,4-tetrahydronaphthalen-1-yl)carbamoyl)pyrrolidin-3-yl)-N-((R)-1-(2-fluorophenyl)-2-hydroxyethyl)-1,2,3,4-tetrahydroisoquinoline-3-carboxamide]"
1.8 nM,2.9 nM,"CN[C@@H](C)C(=O)N[C@H](C(=O)N1Cc2cc([C@H]3C[C@@H](C(=O)N[C@@H]4CCCc5ccccc54)N(C(=O)[C@@H](NC(=O)[C@H](C)NC)C(C)(C)C)C3)ccc2C[C@H]1C(=O)N[C@@H]1CCCc2cc(OC)ccc21)C(C)(C)C [Example 37, (S)-2-((S)-3,3-Dimethyl-2-((S)-2-(methylamino)propanamido)butanoyl)-7-((3R,5S)-1-((S)-3,3-dimethyl-2-((S)-2-(methylamino)propanamido)butanoyl)-5-(((R)-1,2,3,4-tetrahydronaphthalen-1-yl)carbamoyl)pyrrolidin-3-yl)-N-((R)-6-methoxy-1,2,3,4-tetrahydronaphthalen-1-yl)-1,2,3,4-tetrahydroisoquinoline-3-carboxamide]"
1.8 nM,3.2 nM,"CN[C@@H](C)C(=O)N[C@H](C(=O)N1Cc2cc([C@H]3C[C@@H](C(=O)N[C@@H]4CCCc5ccccc54)N(C(=O)[C@@H](NC(=O)[C@H](C)NC)C(C)(C)C)C3)ccc2C[C@H]1C(=O)Nc1cc(C)nn1-c1ccccc1)C(C)(C)C [Example 38, (S)-2-((S)-3,3-Dimethyl-2-((S)-2-(methylamino)propanamido)butanoyl)-7-((3R,5S)-1-((S)-3,3-dimethyl-2-((S)-2-(methylamino)propanamido)butanoyl)-5-(((R)-1,2,3,4-tetrahydronaphthalen-1-yl)carbamoyl)pyrrolidin-3-yl)-N-(3-methyl-1-phenyl-1H-pyrazol-5-yl)-1,2,3,4-tetrahydroisoquinoline-3-carboxamide]"
0.9 nM,1.5 nM,"CN[C@@H](C)C(=O)N[C@H](C(=O)N1Cc2cc([C@H]3C[C@@H](C(=O)N[C@@H]4CCCc5ccccc54)N(C(=O)[C@@H](NC(=O)[C@H](C)NC)C(C)(C)C)C3)ccc2C[C@H]1C(=O)N[C@@H](Cc1ccccc1)C(=O)OC)C(C)(C)C [Example 40, (S)-Methyl 2-((S)-2-((S)-3,3-dimethyl-2-((S)-2-(methylamino)propanamido)butanoyl)-7-((3R,5S)-1-((S)-3,3-dimethyl-2-((S)-2-(methylamino)propanamido)butanoyl)-5-(((R)-1,2,3,4-tetrahydronaphthalen-1-yl)carbamoyl)pyrrolidin-3-yl)-1,2,3,4-tetrahydroisoquinoline-3-carboxamido)-3-phenylpropanoate]"
1.5 nM,4.6 nM,"CN[C@@H](C)C(=O)N[C@H](C(=O)N1Cc2cc([C@H]3C[C@@H](C(=O)N[C@@H]4CCCc5ccccc54)N(C(=O)[C@@H](NC(=O)[C@H](C)NC)C(C)(C)C)C3)ccc2C[C@H]1C(=O)N[C@@H](Cc1ccccc1)C(=O)O)C(C)(C)C [Example 41, (S)-2-((S)-2-((S)-3,3-Dimethyl-2-((S)-2-(methylamino)propanamido)butanoyl)-7-((3R,5S)-1-((S)-3,3-dimethyl-2-((S)-2-(methylamino)propanamido)butanoyl)-5-(((R)-1,2,3,4-tetrahydronaphthalen-1-yl)carbamoyl)pyrrolidin-3-yl)-1,2,3,4-tetrahydroisoquinoline-3-carboxamido)-3-phenylpropanoic acid]"
1.2 nM,1.6 nM,"CN[C@@H](C)C(=O)N[C@H](C(=O)N1Cc2cc([C@H]3C[C@@H](C(=O)N[C@@H]4CCCc5ccccc54)N(C(=O)[C@@H](NC(=O)[C@H](C)NC)C(C)(C)C)C3)ccc2C[C@H]1C(=O)N[C@@H](Cc1ccccc1)C(=O)N(C)C)C(C)(C)C [Example 42, (S)-2-((S)-3,3-Dimethyl-2-((S)-2-(methylamino)propanamido)butanoyl)-7-((3R,5S)-1-((S)-3,3-dimethyl-2-((S)-2-(methylamino)propanamido)butanoyl)-5-(((R)-1,2,3,4-tetrahydronaphthalen-1-yl)carbamoyl)pyrrolidin-3-yl)-N—((S)-1-(dimethylamino)-1-oxo-3-phenylpropan-2-yl)-1,2,3,4-tetrahydroisoquinoline-3-carboxamide]"
1.3 nM,2 nM,"CN[C@@H](C)C(=O)N[C@H](C(=O)N1Cc2cc([C@H]3C[C@@H](C(=O)N[C@@H]4CCCc5ccccc54)N(C(=O)[C@@H](NC(=O)[C@H](C)NC)C(C)(C)C)C3)ccc2C[C@H]1C(=O)N[C@@H](Cc1ccccc1)C(=O)N1CCOCC1)C(C)(C)C [Example 43, (S)-2-((S)-3,3-Dimethyl-2-((S)-2-(methylamino)propanamido)butanoyl)-7-((3R,5S)-1-((S)-3,3-dimethyl-2-((S)-2-(methylamino)propanamido)butanoyl)-5-(((R)-1,2,3,4-tetrahydronaphthalen-1-yl)carbamoyl)pyrrolidin-3-yl)-N—((S)-1-morpholino-1-oxo-3-phenylpropan-2-yl)-1,2,3,4-tetrahydroisoquinoline-3-carboxamide]"
17.4 nM,10.3 nM,"CN[C@@H](C)C(=O)N[C@H](C(=O)N1Cc2cc([C@H]3C[C@@H](C(=O)N[C@@H]4CCCc5ccccc54)N(C(=O)[C@@H](NC(=O)[C@H](C)NC)C(C)(C)C)C3)ccc2C[C@H]1C(=O)N[C@H](COCCO)Cc1ccccc1)C(C)(C)C [Example 44, (S)-2-((S)-3,3-Dimethyl-2-((S)-2-(methylamino)propanamido)butanoyl)-7-((3R,5S)-1-((S)-3,3-dimethyl-2-((S)-2-(methylamino)propanamido)butanoyl)-5-(((R)-1,2,3,4-tetrahydronaphthalen-1-yl)carbamoyl)pyrrolidin-3-yl)-N—((S)-1-(2-hydroxyethoxy)-3-phenylpropan-2-yl)-1,2,3,4-tetrahydroisoquinoline-3-carboxamide]"
4.2 nM,9.2 nM,"CN[C@@H](C)C(=O)N[C@H](C(=O)N1Cc2cc([C@H]3C[C@@H](C(=O)N[C@@H]4CCCc5ccccc54)N(C(=O)[C@@H](NC(=O)[C@H](C)NC)C(C)(C)C)C3)ccc2C[C@H]1C(=O)N[C@@H](Cc1ccccc1)c1noc(C)n1)C(C)(C)C [Example 45, (S)-2-((S)-3,3-Dimethyl-2-((S)-2-(methylamino)propanamido)butanoyl)-7-((3R,5S)-1-((S)-3,3-dimethyl-2-((S)-2-(methylamino)propanamido)butanoyl)-5-(((R)-1,2,3,4-tetrahydronaphthalen-1-yl)carbamoyl)pyrrolidin-3-yl)-N—((S)-1-(5-methyl-1,2,4-oxadiazol-3-yl)-2-phenylethyl)-1,2,3,4-tetrahydroisoquinoline-3-carboxamide]"
1.6 nM,10.2 nM,"CN[C@@H](C)C(=O)N[C@H](C(=O)N1C[C@@H](c2ccc3c(c2)CN(C(=O)[C@@H](NC(=O)[C@H](C)NC)C(C)(C)C)[C@H](C(=O)N[C@@H]2CCCc4ccccc42)C3)C[C@H]1C(=O)N[C@@H](Cc1ccccc1)C(N)=O)C(C)(C)C [Example 46, (S)-7-((3R,5S)-5-(((S)-1-Amino-1-oxo-3-phenylpropan-2-yl)carbamoyl)-1-((S)-3,3-dimethyl-2-((S)-2-(methylamino)propanamido)butanoyl)pyrrolidin-3-yl)-2-((S)-3,3-dimethyl-2-((S)-2-(methylamino)propanamido)butanoyl)-N—((R)-1,2,3,4-tetrahydronaphthalen-1-yl)-1,2,3,4-tetrahydroisoquinoline-3-carboxamide]"
2.4 nM,17.5 nM,"CN[C@@H](C)C(=O)N[C@H](C(=O)N1C[C@@H](c2ccc3c(c2)CN(C(=O)[C@@H](NC(=O)[C@H](C)NC)C(C)(C)C)[C@H](C(=O)N[C@@H]2CCCc4ccccc42)C3)C[C@H]1C(=O)N[C@@H](Cc1ccccc1)C(=O)N1CCOCC1)C(C)(C)C [Example 47, (S)-2-((S)-3,3-Dimethyl-2-((S)-2-(methylamino)propanamido)butanoyl)-7-((3R,5S)-1-((S)-3,3-dimethyl-2-((S)-2-(methylamino)propanamido)butanoyl)-5-(((S)-1-morpholino-1-oxo-3-phenylpropan-2-yl)carbamoyl)pyrrolidin-3-yl)-N-((R)-1,2,3,4-tetrahydronaphthalen-1-yl)-1,2,3,4-tetrahydroisoquinoline-3-carboxamide]"

Structure (SMILES),IC50 (XIAP BIR2-3),IC50 (XIAP BIR3)
"CN[C@@H](C)C(=O)N[C@H](C(=O)N1Cc2cc([C@H]3C[C@@H](C(=O)N[C@@H]4CCCc5ccccc54)N(C(=O)[C@@H](NC(=O)[C@H](C)NC)C(C)(C)C)C3)ccc2C[C@H]1C(=O)N[C@H](COC)Cc1ccccc1)C(C)(C)C [Example 39, (S)-2-((S)-3,3-Dimethyl-2-((S)-2-(methylamino)propanamido)butanoyl)-7-((3R,5S)-1-((S)-3,3-dimethyl-2-((S)-2-(methylamino)propanamido)butanoyl)-5-(((R)-1,2,3,4-tetrahydronaphthalen-1-yl)carbamoyl)pyrrolidin-3-yl)-N-((S)-1-methoxy-3-phenylpropan-2-yl)-1,2,3,4-tetrahydroisoquinoline-3-carboxamide]",5.6 nM,7.2 nM
